Measured values published in patent US20110294874A1, “DIAGNOSIS AND THERAPY OF ORGAN DYSFUNCTION USING SPHINGANINE-1-PHOSPHATE” (The Trustees of Columbia University in the City of New York, priority 2008, published 2011).
“And” between values parts separate entries of the source, which are not always exact repeats. Equal values may be shown once.

Columns and labels:
[1] = test system: C57BL/6 mice subjected to liver IR; assay: Murine model of liver ischemia reperfusion (hepatic IR): plasma ALT and creatinine; type: in vivo, mouse; conditions: for Effect of pre-treatment on Sg1P-mediated renal and hepatic protection after liver IR: given prior to Sg1P treatment, serum creatinine and ALT; for Serum creatinine (mean) / Serum ALT (mean): C57BL/6 mice, 60 min liver ischemia, 24 h reperfusion; for Effect of pretreatment alone on kidney injury resulting from liver IR / Effect of pretreatment alone on liver injury resulting from liver IR: antagonist alone, no Sg1P
[2] = test system: C57BL/6 mice subjected to liver IR; assay: Kidney H&E histology after liver IR; type: in vivo, mouse; conditions: pre-treatment prior to Sg1P
Source text: Liver IR-induced AKI in mice shared similar histological changes observed in human AKI associated with liver failure, as observed in H&E slides of kidney sections taken from the mice (see FIG. 3). Multifocal acute tubular injury including individual cell necrosis involving the juxtamedullary proximal tubules of the S3 segment was observed. […] Endothelial apoptosis of peritubular capillaries was also visible in H&E sections as linear arrays of apoptotic bodies corresponding to the interstitial capillary lining endothelium. […] The number of glomeruli with detectable juxtaglomerular apparatus and the number of cells per juxtaglomerular apparatus were both increased after liver IR, indicating hyperplasia of the juxtaglomerular apparatus. […] Liver IR produced large necrotic areas of liver tissue. The average percentage of necrotic areas in liver samples taken from liver IR mice were 92%±2% (n=6), while no necrosis was found in sham-operated mice. Livers were also analyzed for the degree of hepatocellular damage.

[3] = test system: C57BL/6 mice subjected to liver IR; assay: Liver H&E histology after liver IR (percent necrosis, Suzuki score); type: in vivo, mouse; conditions: pre-treatment prior to Sg1P treatment
Procedure: Mice were anesthetized with intraperitoneal pentobarbital (50 mg/kg or to effect). Mice were placed under a heating lamp and on a 37° C. heating pad. After a midline laparotomy and intraperitoneal application of 20 U heparin, left lateral and median lobes of the liver were subjected to ischemia with a microaneurysm clip occluding the hepatic triad above the bifurcation. This method of partial hepatic ischemia results in a segmental (˜70%) hepatic ischemia but spares the right lobe of the liver and prevents mesenteric venous congestion by allowing portal decompression throughout the right and caudate lobes of the liver. The liver was then repositioned in the peritoneal cavity in its original location for 60 minutes. The liver was kept moist with gauze soaked in 0.9% normal saline. The body temperature was monitored by an infrared temperature sensor (Linear Laboratories, Fremont, Calif.) every 10 min. and maintained at 37° C. using a heating lamp and a heating pad. After 60 minutes, the liver was reperfused and the wound closed. Sham-operated mice were subjected to laparotomy and identical liver manipulations without vascular occlusion. Two, 4 and 24 hr after reperfusion, plasma was collected for the measurement of alanine aminotransferase (ALT), a common indicator of liver damage, as well as creatinine (Cr) a common indicator of kidney damage. The liver tissue subjected to IR was collected to measure percent liver necrosis (2, 4 and 24 hr after IR), neutrophil infiltration (with immunohistochemistry, 4 and 24 hr after IR), apoptosis (with terminal deoxynucleotidyl transferase-mediated dUTP nick end labeling staining, caspase 3 immunoblotting and DNA laddering, 24 hr after IR), and inflammation by RT-PCR for pro-inflammatory mRNAs (4 hr after IR).
Livers were also analyzed for the degree of hepatocellular damage using the Suzuki's criteria (Suzuki et al., Transplantation 1993, Vol. 55, pp. 1265-1272). To obtain a Suzuki score, 3 liver injury indices are graded: sinusoidal congestion (0-4), hepatocyte necrosis (0-4), and ballooning degeneration (0-4) are graded for a total score of 0-12. No necrosis, congestion, or centrilobular ballooning is given a score of 0 whereas severe congestion/ballooning and >60% lobular necrosis is given a value of 4.

[4] = test system: SK1 KO mice subjected to liver IR; assay: Liver IR in SK1 KO mice: plasma ALT and creatinine; type: in vivo, mouse; conditions: SK1KO, hepatic IR 24 h
Procedure: (§1) The effects of administering Sg1P (0.1 mg/kg i.v. and 0.2 mg/kg s.c.) on liver and renal injury were also determined in the KO mice and are also shown in Tables 9 and 10 below.

[5] = mouse, in vivo
[6] = test system: SK2 KO mice subjected to liver IR; assay: Liver IR in SK2 KO mice: plasma ALT and creatinine; type: in vivo, mouse; conditions: SK2KO, hepatic IR 24 h
Procedure: as §1

[7] = test system: SK-deficient mice subjected to liver IR; assay: Liver IR in SK-deficient mice (subtype not stated); type: in vivo, mouse; conditions: liver IR (data not shown)
Procedure: as §1

[8] = test system: S1P1 and S1P3 receptors; conditions: cited from earlier work
[9] = 0.1 mg/kg i.v. and 0.2 mg/kg s.c.

Question: For `CCCCCCCCCCCC1N[C@H](C(=O)O)CS1` (some centres unmarked) [BML-241], which “Effect of pre-treatment on Sg1P-mediated renal and hepatic protection after liver IR” value (shortened to “Effect of pre-treatment … after liver IR”) [1] is on record?
Answer: The value was “did not block”.

Question: Which “Serum creatinine (mean)” value [1] does the source give for `CCCCCCCCc1ccc(CCC(N)(CO)CO)cc1` [FTY720] here?
Answer: Its value is 0.65 ± 0.06 mg/dL.

Question: And the “serum ALT” value ([1]; liver IR, 1 mg/kg i.p. 30 min. prior to liver ischemia and 5 min prior to reperfusion, in U/L)?
Answer: Its value is 6435±944.

Question: For `Cc1nn(C)c2nc(NNC(=O)Nc3cc(Cl)nc(Cl)c3)cc(C(C)C)c12` [JTE-013], which “Effect of pre-treatment … after liver IR” value [1] is on record?
Answer: Its value is “did not block”.

Question: Which “Effect of pre-treatment … after liver IR” value [1] does the source give for `CC(=N)NCCC[C@H](N)C(=O)O` [L-NIO] here?
Answer: The value was “had no effects”.

Question: Which results are given for `COc1cccc(-c2cc(=O)c3ccccc3o2)c1N` [PD98059]?
Answer: Effect of pre-treatment on protective effects of Sg1P on renal histology [2]: reduced the protective effects; Necrotic areas in the liver after IR [3]: increased significantly; Effect of pre-treatment on Sg1P-mediated renal and hepatic protection after liver IR [1]: prevented

Question: What does the source list for `CCCCCCCCCCCCC/C=C/[C@@H](O)[C@@H](N)COP(=O)(O)O` [S1P, sphingosine-1-phosphate]?
Answer: Creatinine (mean) [4]: 1.035 mg/dL; ALT (mean) [4, 9]: 17416.67 U/L; Rescue of serum Sg1P levels [5]: completely rescued; Creatinine (mean) [6]: 0.880 mg/dL; ALT (mean) [6, 9]: 13165.08 U/L; Serum ALT (mean) [1]: 9178±1822 U/L and 9178 U/L; Serum creatinine (mean) [1]: 0.72 ± 0.13 mg/dL and 0.72 mg/dL

Question: With `FC(F)(F)c1cccc(-c2noc(-c3cc(-c4ccccc4)c(C(F)(F)F)s3)n2)c1` [SEW2871] as the molecule, how does the “Serum ALT (mean)” value [1] read?
Answer: Its value is 6502±552 U/L.

Question: What about the “Serum creatinine (mean)” value [1] of the same molecule?
Answer: Its value is 0.63 ± 0.08 mg/dL.

Question: Which results are given for `CCCCCCCCCCCCCCC[C@@H](O)[C@@H](N)CO` [Sphinganine, sphinganine]?
Answer: Kidney protection [7]: failed to provide kidney protection; Protective effect on the liver [7]: failed to provide protective effect on the liver; Serum ALT (mean) [1]: 7170 U/L; Serum creatinine (mean) [1]: 0.58 mg/dL; Serum ALT (mean) ([1]; listed as sphinganine): 7170±1282 U/L; Serum creatinine (mean) ([1]; listed as sphinganine): 0.58 ± 0.05 mg/dL

Question: Which results are given for `CCCCCCCCCCCCC/C=C/[C@@H](O)[C@@H](N)CO` [Sphingosine, sphingosine]?
Answer: Serum ALT (mean) [1]: 9269 U/L; Serum creatinine (mean) [1]: 0.76 mg/dL; Serum ALT (mean) ([1]; listed as sphingosine): 9269±583 U/L; Serum creatinine (mean) ([1]; listed as sphingosine): 0.76 ± 0.06 mg/dL

Question: With `CCCCCCCCc1cccc(NC(=O)[C@H](N)COP(=O)(O)O)c1` [VPC] as the molecule, how does the “Selectivity for S1P1 (over S1P3)” value [8] read?
Answer: The value was 50 fold.

Question: And the “Serum ALT (mean)” value [1]?
Answer: Its value is 18253 U/L.

Question: And the “Serum creatinine (mean)” value [1]?
Answer: Its value is 1.61 mg/dL.

Question: And the “Serum ALT (mean)” value ([1]; listed as VPC 23019)?
Answer: Its value is 18253±1709 U/L.

Question: And the “Effect of pretreatment alone on kidney injury resulting from liver IR” value [1]?
Answer: Its value is “exacerbated kidney injury”.

Question: What about the “Effect of pretreatment alone on liver injury resulting from liver IR” value [1] of the same molecule?
Answer: Its value is “exacerbated liver injury”.

Question: Which results are given for `CCCCCCc1cccc(NC(=O)[C@H](N)CCP(=O)(O)O)c1` [W146]?
Answer: Effect of pre-treatment on protective effects of Sg1P on renal histology [2]: reduced the protective effects; Necrotic areas in the liver after IR [3]: increased significantly; Inhibition of Sg1P-mediated renal and hepatic protection ([1]; 0.1 mg/kg (i.p.) 10 minutes prior to liver ischemia): completely inhibit; Serum ALT (mean) [1]: 24452±1760 U/L and 24451 U/L; Serum creatinine (mean) [1]: 1.6 ± 0.2 mg/dL and 1.55 mg/dL; Effect of pretreatment alone on kidney injury resulting from liver IR [1]: exacerbated kidney injury; Effect of pretreatment alone on liver injury resulting from liver IR [1]: exacerbated liver injury; Inhibition of Sg1P's protective effects against liver and kidney injury ([1]; pre-treatment 0.01-0.2 mg/kg): dose-dependent

Question: With pertussis toxin as the molecule, how does the “Effect of pre-treatment on protective effects of Sg1P on renal histology” value [2] read?
Answer: The value was “reduced the protective effects”.

Question: And the “Necrotic areas in the liver after IR” value [3]?
Answer: The value was “increased significantly”.

Question: And the “Effect of pre-treatment … after liver IR” value [1]?
Answer: Its value is “prevented”.
